Measured values published in US20240352021A1 (DANA-FARBER CANCER INSTITUTE, INC., priority 2021, published 2024).

Columns and labels:
EGFR L858R = EGFR L858R (Homo sapiens, UniProt P00533, L858R); assay: EGFR biochemical assay (headed HTRF-based; method describes Z'-LYTE), L858R; settings: Table 4
Protocol: (§1) To measure the IC50 values of compounds herein against EGFR, a Z′-LYTE assay (ThermoFisher) was used. Briefly, 2.5 μL of different concentrations of the compounds in 4% DMSO were added to 5 μL kinase/peptide mixture in each well of a 384-well plate (Corning Cat. #3676). 2.5 μL of 4× ATP solution (4× ATP, 50 mM HEPES, pH 7.5, 0.01% BRIJ-35, 10 mM MgCl2, 1 mM EGTA) were added to each well. The plate was shaken for 30 seconds, and then incubated at room temperature for 60 minutes. 5 μL of a 1:100000 dilution of Development Reagent A was added to each well. The plate was then incubated for 60 mins at room temperature. 5 μL of the stop reagent was then added. The plate was subsequently read on a fluorescence plate reader, and the emissions ratio was calculated to determine the ratio of Ser/Thr 07 phosphorylated by the reaction. Emissions Ratio═Coumarin Emission (443 nm)/Flourescein Emission (520 nm).
(§2) HTRF-based EGFR assay data are provided below in Table 4.

EGFR L858R/T790M = EGFR L858R/T790M (Homo sapiens, UniProt P00533, L858R/T790M); assay: EGFR biochemical assay (headed HTRF-based; method describes Z'-LYTE), L858R/T790M; settings: Table 4
EGFR L858R/T790M, sequence (P00533 25-1210 T790M/L858R): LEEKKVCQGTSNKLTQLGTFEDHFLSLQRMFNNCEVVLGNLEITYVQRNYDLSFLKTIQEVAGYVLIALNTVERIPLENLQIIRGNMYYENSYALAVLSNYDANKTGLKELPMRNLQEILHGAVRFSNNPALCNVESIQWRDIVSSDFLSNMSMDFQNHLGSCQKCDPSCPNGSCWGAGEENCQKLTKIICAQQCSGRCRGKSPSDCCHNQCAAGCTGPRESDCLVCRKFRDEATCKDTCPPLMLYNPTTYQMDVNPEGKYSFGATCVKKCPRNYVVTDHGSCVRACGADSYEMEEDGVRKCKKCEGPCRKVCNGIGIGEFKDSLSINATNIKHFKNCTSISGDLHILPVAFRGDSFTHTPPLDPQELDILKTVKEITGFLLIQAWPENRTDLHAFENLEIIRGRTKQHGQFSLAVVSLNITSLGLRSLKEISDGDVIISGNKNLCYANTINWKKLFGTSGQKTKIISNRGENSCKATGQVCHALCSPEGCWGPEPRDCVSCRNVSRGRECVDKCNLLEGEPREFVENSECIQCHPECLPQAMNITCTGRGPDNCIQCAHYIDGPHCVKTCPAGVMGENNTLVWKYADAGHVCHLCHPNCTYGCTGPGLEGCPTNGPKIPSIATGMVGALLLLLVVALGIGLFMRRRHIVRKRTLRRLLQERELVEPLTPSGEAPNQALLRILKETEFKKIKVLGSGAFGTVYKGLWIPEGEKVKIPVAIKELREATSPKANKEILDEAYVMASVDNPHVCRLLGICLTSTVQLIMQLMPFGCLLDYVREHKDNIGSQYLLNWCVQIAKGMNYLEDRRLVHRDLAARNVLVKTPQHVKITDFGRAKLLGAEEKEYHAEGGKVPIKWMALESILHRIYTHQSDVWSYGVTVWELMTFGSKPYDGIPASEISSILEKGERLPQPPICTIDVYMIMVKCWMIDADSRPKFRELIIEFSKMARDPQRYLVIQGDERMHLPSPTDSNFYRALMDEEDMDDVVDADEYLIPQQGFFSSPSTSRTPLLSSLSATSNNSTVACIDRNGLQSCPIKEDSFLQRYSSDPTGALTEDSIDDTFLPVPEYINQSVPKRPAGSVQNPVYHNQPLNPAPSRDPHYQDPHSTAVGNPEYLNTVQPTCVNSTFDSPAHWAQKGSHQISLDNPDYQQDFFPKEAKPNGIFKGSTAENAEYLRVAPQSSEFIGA
Protocol: as §1, §2

[1] = target: EGFR mutant L858R Ba/F3 cells (Homo sapiens, UniProt P00533, L858R, cells depend on it); assay: Ba/F3 cell proliferation (Cell Titer Glo), EGFR L858R; type: cell-based, murine; settings: 72 hours, Table 6, read-out: L858R BaF3
EGFR mutant L858R Ba/F3 cells, sequence (P00533 whole entry L858R): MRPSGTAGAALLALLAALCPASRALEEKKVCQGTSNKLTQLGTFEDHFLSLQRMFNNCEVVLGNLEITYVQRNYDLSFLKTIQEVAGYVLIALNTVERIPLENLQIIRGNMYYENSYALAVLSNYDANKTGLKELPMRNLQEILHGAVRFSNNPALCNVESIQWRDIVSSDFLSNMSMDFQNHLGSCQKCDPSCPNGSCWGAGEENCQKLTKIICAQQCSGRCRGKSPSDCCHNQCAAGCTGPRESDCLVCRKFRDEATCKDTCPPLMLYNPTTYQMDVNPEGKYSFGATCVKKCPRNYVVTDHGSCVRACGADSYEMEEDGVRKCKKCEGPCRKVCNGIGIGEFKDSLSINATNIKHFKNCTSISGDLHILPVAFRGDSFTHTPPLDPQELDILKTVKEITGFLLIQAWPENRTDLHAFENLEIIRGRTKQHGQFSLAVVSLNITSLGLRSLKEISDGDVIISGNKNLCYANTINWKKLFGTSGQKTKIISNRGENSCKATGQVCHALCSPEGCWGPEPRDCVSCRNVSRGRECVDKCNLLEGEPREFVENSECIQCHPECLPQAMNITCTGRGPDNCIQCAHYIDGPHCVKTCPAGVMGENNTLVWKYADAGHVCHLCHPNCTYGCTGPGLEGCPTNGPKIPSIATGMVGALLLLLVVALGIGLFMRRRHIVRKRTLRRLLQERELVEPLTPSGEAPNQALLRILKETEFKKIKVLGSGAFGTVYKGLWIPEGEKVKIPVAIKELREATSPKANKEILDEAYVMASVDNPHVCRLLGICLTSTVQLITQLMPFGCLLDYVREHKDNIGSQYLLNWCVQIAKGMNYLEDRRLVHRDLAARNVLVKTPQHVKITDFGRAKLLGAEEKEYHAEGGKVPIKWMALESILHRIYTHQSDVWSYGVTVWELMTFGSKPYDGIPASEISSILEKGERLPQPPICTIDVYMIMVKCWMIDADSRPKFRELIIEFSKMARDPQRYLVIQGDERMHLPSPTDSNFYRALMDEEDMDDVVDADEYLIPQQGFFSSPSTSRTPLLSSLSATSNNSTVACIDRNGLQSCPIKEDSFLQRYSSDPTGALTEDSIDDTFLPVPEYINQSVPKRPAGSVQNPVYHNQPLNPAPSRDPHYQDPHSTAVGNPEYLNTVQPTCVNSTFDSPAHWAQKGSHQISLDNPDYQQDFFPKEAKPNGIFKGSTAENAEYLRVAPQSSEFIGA
Outline: (§3)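 Retrovirally transduced, puromycin-selected Ba/F3 cells expressing EGFR L858R or L858R/C797S, grown in RPMI + 10% FBS, exposed to compounds for 72 h in triplicate. Viability by Cell Titer Glo ATP luminescence; IC50 from sigmoidal dose-response fit, binned A <0.1, B 0.1–0.5, C 0.5–2.5, D ≥2.5 μM.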

[2] = target: EGFR L858R/C797S Ba/F3 cells (Homo sapiens, UniProt P00533, C797S/L858R, cells depend on it); assay: Ba/F3 cell proliferation (Cell Titer Glo), EGFR L858R/C797S; type: cell-based, murine; settings: 72 hours, Table 6
EGFR L858R/C797S Ba/F3 cells, sequence (P00533 whole entry C797S/L858R): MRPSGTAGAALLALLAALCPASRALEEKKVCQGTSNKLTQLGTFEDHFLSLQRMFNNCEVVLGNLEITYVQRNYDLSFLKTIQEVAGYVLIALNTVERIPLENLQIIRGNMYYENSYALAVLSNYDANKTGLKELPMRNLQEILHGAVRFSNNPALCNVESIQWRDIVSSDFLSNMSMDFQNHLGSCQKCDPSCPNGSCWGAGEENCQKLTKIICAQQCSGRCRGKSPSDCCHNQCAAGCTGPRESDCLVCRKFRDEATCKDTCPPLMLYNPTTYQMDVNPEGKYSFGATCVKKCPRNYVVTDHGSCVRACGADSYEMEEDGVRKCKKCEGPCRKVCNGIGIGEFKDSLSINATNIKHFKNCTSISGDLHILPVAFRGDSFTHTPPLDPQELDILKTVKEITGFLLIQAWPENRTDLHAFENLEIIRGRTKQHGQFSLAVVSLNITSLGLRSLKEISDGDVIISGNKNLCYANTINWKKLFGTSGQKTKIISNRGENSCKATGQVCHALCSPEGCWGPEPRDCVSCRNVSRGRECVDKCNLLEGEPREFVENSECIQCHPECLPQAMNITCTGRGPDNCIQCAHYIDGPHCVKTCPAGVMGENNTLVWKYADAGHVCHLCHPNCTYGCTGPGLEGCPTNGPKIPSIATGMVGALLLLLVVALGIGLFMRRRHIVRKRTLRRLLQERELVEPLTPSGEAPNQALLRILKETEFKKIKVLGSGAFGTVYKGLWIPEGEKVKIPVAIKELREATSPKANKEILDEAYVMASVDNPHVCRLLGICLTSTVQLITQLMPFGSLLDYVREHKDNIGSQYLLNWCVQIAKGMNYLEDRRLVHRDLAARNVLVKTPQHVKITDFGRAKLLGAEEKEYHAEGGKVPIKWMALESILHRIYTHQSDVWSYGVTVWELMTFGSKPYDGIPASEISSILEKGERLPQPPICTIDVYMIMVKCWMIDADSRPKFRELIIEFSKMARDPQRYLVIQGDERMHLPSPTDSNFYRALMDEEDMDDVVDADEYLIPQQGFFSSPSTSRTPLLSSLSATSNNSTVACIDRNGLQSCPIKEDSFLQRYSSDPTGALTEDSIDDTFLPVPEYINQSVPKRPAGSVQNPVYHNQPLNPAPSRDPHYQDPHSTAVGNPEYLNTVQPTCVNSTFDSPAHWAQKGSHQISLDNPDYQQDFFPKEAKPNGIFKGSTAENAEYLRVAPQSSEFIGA
Outline: as §3

EGFR L858R, sequence (P00533 25-1210 L858R): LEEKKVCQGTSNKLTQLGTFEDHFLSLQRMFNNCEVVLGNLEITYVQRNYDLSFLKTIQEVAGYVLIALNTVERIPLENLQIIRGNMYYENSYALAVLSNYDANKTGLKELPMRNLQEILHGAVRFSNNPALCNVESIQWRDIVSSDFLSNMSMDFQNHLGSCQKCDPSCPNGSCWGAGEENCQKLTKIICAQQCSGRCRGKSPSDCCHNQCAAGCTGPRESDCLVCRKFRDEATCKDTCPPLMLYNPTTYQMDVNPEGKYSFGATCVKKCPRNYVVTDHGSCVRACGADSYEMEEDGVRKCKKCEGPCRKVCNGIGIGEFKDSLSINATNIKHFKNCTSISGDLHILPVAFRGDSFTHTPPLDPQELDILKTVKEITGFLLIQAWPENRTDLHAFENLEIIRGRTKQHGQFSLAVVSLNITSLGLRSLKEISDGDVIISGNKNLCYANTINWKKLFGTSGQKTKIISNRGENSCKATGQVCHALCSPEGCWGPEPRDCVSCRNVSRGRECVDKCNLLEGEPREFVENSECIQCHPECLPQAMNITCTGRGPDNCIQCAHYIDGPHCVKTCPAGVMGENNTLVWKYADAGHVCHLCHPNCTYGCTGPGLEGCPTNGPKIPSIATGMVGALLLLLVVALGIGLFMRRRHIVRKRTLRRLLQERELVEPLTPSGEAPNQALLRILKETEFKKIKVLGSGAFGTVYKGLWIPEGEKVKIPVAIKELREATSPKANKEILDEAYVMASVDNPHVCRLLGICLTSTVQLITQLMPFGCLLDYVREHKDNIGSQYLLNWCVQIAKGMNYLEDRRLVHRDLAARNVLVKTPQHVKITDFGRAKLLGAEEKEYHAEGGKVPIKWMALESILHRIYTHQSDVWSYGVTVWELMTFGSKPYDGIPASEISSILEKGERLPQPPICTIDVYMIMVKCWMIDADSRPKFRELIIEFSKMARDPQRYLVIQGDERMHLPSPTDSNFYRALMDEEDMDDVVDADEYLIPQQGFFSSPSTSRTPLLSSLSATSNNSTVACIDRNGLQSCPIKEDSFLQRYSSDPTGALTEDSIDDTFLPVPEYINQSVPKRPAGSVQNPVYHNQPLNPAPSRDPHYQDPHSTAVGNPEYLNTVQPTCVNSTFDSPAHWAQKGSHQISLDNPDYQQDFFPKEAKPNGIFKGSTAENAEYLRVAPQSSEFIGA

Row | SMILES | IC50 (EGFR L858R) | IC50 (EGFR L858R/T790M) | GI50 [1] | GI50 [2]
1 | C=CC(=O)N1CC[C@@H](N2Cc3cnc(Nc4ccc(N5CCN(C)CC5)cc4)nc3N(C)C2=O)c2cccc(C)c21 [Compound 141] | > 1000 nM | > 1000 nM | 100 to 500 nM | 100 to 500 nM
2 | C=CC(=O)N1CC[C@H](N2Cc3cnc(Nc4ccc(CS(=O)(=O)NC)cc4)nc3N(C)C2=O)c2cccc(C)c21 [Compound 145] | 1.77 nM | > 1000 nM | < 100 nM | < 100 nM
3 | C=CC(=O)N1CC[C@H](N2Cc3cnc(Nc4cnn(CCO)c4)nc3N(C)C2=O)c2cccc(OC)c21 [Compound 118] | > 100 nM | > 100 nM | 100 to 500 nM | 500 to 2500 nM
4 | [2H]C1(N2Cc3cnc(Nc4ccc(N5CCN(C)CC5)cc4)nc3N(C)C2=O)CCN(C(=O)C=C)c2c(OC)cccc21 (centres unmarked) [Compound 130, 3-(4-deuterio-8-methoxy-1-prop-2-enoyl-2,3-dihydroquinolin-4-yl)-1-methyl-7-[4-(4-methylpiperazin-1-yl)anilino]-4H-pyrimido[4,5-d]pyrimidin-2-one] | 43 nM | > 1000 nM | < 100 nM | 100 to 500 nM
5 | C=CC(=O)N1CC[C@H](N2Cc3cnc(Nc4cnn(CCO)c4)nc3N(C)C2=O)[C@@H]2CCC[C@@H]21 [Compound 126, 7-[[1-(2-hydroxyethyl)pyrazol-4-yl]amino]-1-methyl-S-(1-prop-2-enoyl-2,3,4,4a, 5,6,7,7a-octahydrocyclopenta[b]pyridin-4-yl)-4H-pyrimido[4,5-d]pyrimidin-2-one] | > 100 nM | > 100 nM | ≥ 2500 nM | ≥ 2500 nM
6 | C=CC(=O)N1CCC(N2Cc3cnc(Nc4ccc(N5CCN(C)CC5)cc4)nc3N(C)C2=O)c2cccc(C#N)c21 (centres unmarked) [Compound 150, 4-[1-methyl-7-[4-(4-methylpiperazin-1-yl)anilino]-2-oxo-4H-pyrimido[4,5-d]pyrimidin-S-yl]-1-prop-2-enoyl-3,4-dihydro-2H-quinoline-8-carbonitrile] | > 1000 nM | > 1000 nM | 500 to 2500 nM | 500 to 2500 nM
7 | [2H]C1(N2Cc3cnc(Nc4cnn(CCO)c4)nc3N(C)C2=O)CCN(C(=O)C=C)c2ccccc21 (centres unmarked) [Compound 127] | 1.2 nM | > 700 nM | < 100 nM | < 100 nM
8 | C=CC(=O)N1CC[C@H](N2Cc3cnc(Nc4ccc(N5CCN(C)CC5)cc4)nc3N(C3CCOC3)C2=O)c2cccc(C)c21 (stereo partly drawn) [Compound 151, 7-[4-(4-methylpiperazin-1-yl)anilino]-S-[(4S)-8-methyl-1-prop-2-enoyl-3,4-dihydro-2H-quinolin-4-yl]-1-tetrahydrofuran-S-yl-4H-pyrimido[4,5-d]pyrimidin-2-one] | 0.86 nM | > 1000 nM | < 100 nM | < 100 nM
9 | C=CC(=O)N1CCC(N2Cc3cnc(Nc4ccc(N5CCN(C)CC5)cc4)nc3N(C)C2=O)c2cccc(O)c21 (single isomer, unassigned) [Compound 156] | 0.18 nM | 1.18 nM | < 100 nM | < 100 nM
10 | C=CC(=O)N1CCC2(N3Cc4cnc(Nc5ccc(OCCN6CCCC6)cc5)nc4N(C)C3=O)CC2C1 (stereo not drawn) [Compound 121, 1-methyl-S-(3-prop-2-enoyl-S-azabicyclo[4.1.0]heptan-6-yl)-7-[4-(2-pyrrolidin-1-ylethoxy)anilino]-4H-pyrimido[4,5-d]pyrimidin-2-one] | > 100 nM | > 100 nM | ≥ 2500 nM | ≥ 2500 nM
11 | C=C(CN1CCC(N2Cc3cnc(Nc4ccc(N5CCN(C)CC5)cc4)nc3N(C)C2=O)C1)C(=O)O (centres unmarked) [Compound 136, 2-[[3-[1-methyl-7-[4-(4-methylpiperazin-1-yl)anilino]-2-oxo-4H-pyrimido[4,5-d]pyrimidin-S-yl]pyrrolidin-1-yl]methyl]prop-2-enoic acid] | > 1000 nM | > 1000 nM | ≥ 2500 nM | ≥ 2500 nM
